Consider four compounds from ChEMBL document CHEMBL1201862, “PubChem BioAssay data set” (2004).

Common to all, as to experiment: NCI anticancer screen, dose series, 48 h
For experiment [1], the system named is SF-295.
Experiment [2] concerns UO-31.
The subject of experiment [3] is OVCAR-4.
Experiment [4] relates to MOLT-4.
Experiment [5] has as its system 786-0.
Experiment [6] concerns Hs-578T.
For experiment [7], the system named is T47D.
Experiment [8] relates to MCF7.
The subject of experiment [9] is SN12C.
Experiment [10] has as its system MDA-MB-435.
The subject of experiment [11] is UACC-257.
For experiment [12], the system named is OVCAR-5.
The test system of experiment [13] is U-251.
For experiment [14], the system named is HOP-92.
For experiment [15], the system named is HCC 2998.
Experiment [16] deals with NCI-H226.
The subject of experiment [17] is HCT-15.
Experiment [18] relates to HOP-62.
In experiment [19] the test system is MDA-N.
Experiment [20] relates to SK-OV-3.

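All cell lines were grown in 96-well plates and treated with compound for 48 hours. GI50 is the concentration that inhibits growth by half.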 Calls of active or inactive are those of the source. Rule as the data show it: active = GI50 up to about 1.1 µM and inactive = higher. Bounds are passed on as bounds.

With `C=C(C)[C@@H]1CC[C@]2(C)CC[C@]3(C)[C@H](CC[C@@H]4[C@@]5(C)CC[C@H](O)C(C)(C)[C@@H]5CC[C@]43C)[C@@H]12` [LUPEOL], the GI50 is > 50.8 µM (inactive) in experiment [1]; > 47.8 µM (inactive) in experiment [2]; > 100 µM (inactive) in [3]; 27.5 µM (inactive) in experiment [4]; 37.2 µM (inactive) in experiment [5]; 25.6 µM (inactive) in [6]. Besides, the GI50 in [7] was > 100 µM (inactive); in experiment [8] it was 21.7 µM (inactive); in experiment [9], 36.5 µM (inactive); in experiment [10], 19.4 µM (inactive); in experiment [11], > 42.7 µM (inactive); in [12], > 100 µM (inactive). In addition, the GI50 is 21.9 µM (inactive) in experiment [13]; 36.1 µM (inactive) in experiment [14]; > 100 µM (inactive) in experiment [15]; > 50.4 µM (inactive) in [16]; greater than 70.1 µM in experiment [17]; > 58.3 µM (inactive) in experiment [18]. Besides, in experiment [19], the GI50 was 32.7 µM (inactive).

On to `Cc1ccc(OCCn2cc(Nc3ccccc3)c(=O)n(CCOc3ccc(C)cc3)c2=O)cc1`, for which the GI50 in experiment [1] is 50.2 µM (inactive); in [2], > 100 µM (inactive); in [3], 49.9 µM (inactive); in experiment [4] it was 67.1 µM (inactive); in experiment [5] it was 48 µM (inactive); in [6], 67.6 µM (inactive). Besides, the GI50 in experiment [7], in experiment [8], in experiment [9], in experiment [10], in experiment [11] and in experiment [12] was > 100 µM (inactive) throughout. The GI50 was 51.6 µM (inactive) in experiment [13]; 44.5 µM (inactive) in [14]; > 100 µM (inactive) in experiment [15]; > 100 µM (inactive) in experiment [16]; greater than 100 µM in experiment [17]; > 100 µM (inactive) in [19].

As to `Oc1ccc(Cl)cc1Sc1cc(Cl)ccc1O` [FENTICLOR], the GI50 in experiment [1] was 13.5 µM (inactive); in experiment [2], 6.78 µM (inactive); in experiment [3], 10 µM (inactive); in experiment [4], 7.53 µM (inactive); in experiment [20], 20.5 µM (inactive); in experiment [5], 18.1 µM (inactive). Moreover, the GI50 in [6] is 4.98 µM (inactive); in [7], 5.85 µM (inactive); in [8] it was 17.3 µM (inactive); in experiment [9], 10.5 µM (inactive); in experiment [10], 10.9 µM (inactive); in experiment [11] it was 6.65 µM (inactive). The GI50 in experiment [12] was 13.4 µM (inactive); in experiment [13], 8.53 µM (inactive); in experiment [14], 3.15 µM (inactive); in experiment [16] it was 20.5 µM (inactive); in experiment [17], 8.65 µM; in experiment [18], 16.7 µM (inactive). The GI50 in experiment [19] was 7.24 µM (inactive).

As for `N#CCCN(CCC#N)c1ccc(/C=C2\N=C(c3ccccc3)N(NC(=O)c3ccncc3)C2=O)cc1`, the GI50 in experiment [1], in experiment [2], in [3], in experiment [4], in experiment [20] and in [5] was > 100 µM (inactive) throughout. In addition, the GI50 in experiment [6] is > 100 µM (inactive); in experiment [7], > 100 µM (inactive); in experiment [8] it was > 100 µM (inactive); in experiment [9], > 100 µM (inactive); in experiment [10], 69.3 µM (inactive); in [11] it was > 100 µM (inactive). Besides, the GI50 was > 100 µM (inactive) in experiment [12]; > 100 µM (inactive) in experiment [13]; > 100 µM (inactive) in experiment [14]; > 100 µM (inactive) in [16]; greater than 100 µM in experiment [17]; > 100 µM (inactive) in experiment [18]. In experiment [19], the GI50 was > 100 µM (inactive).
